From PubChem BioAssay (NCI) come the findings set out here.

Molecules are shown by their SMILES.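 Cells were grown in 96-well plates and exposed to each compound for 48 hours at five concentrations; endpoints were interpolated linearly between bracketing concentrations, or set to the highest concentration if not reached. The concentration for full growth arrest is given as TGI.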 Where a SMILES comes first, the peptide text is derived from it. The star is where a group is joined. Boc = CC(C)(C)OC(=O)*

Among the test systems are BT-549 breast; CAKI-1 renal; HT29 colon; IGROV1 ovarian; K-562 leukemia; KM12 colon; M14 melanoma; MALME-3M melanoma; MDA-MB-435; NCI-H226 lung; NCI/ADR-RES ovarian; OVCAR-3 ovarian; PC-3 prostate; SF-295 CNS; SK-MEL-5 melanoma; SN12C renal; T-47D breast; NCI-H23 lung.
What all share (experiment): growth of human tumour cells (NCI), 48 h

`NC1=NCC(CN2CCCCC2)O1` (stereo not given): the TGI in the test on BT-549 breast, in the test on CAKI-1 renal, with HT29 colon, in the test on IGROV1 ovarian, in the test with K-562 leukemia and with KM12 colon was over 100 µM in each case. The TGI with M14 melanoma, with MALME-3M melanoma, with MDA-MB-435, in the test on NCI-H226 lung, with NCI/ADR-RES ovarian and with OVCAR-3 ovarian was over 100 µM throughout. For the same compound, the TGI with PC-3 prostate, in the test on SF-295 CNS, in the test with SK-MEL-5 melanoma, in the test with SN12C renal and in the test on T-47D breast was over 100 µM throughout.
On to `O=C(NNC(=S)Nc1ccc(Cl)cc1)C12CC3CC(CC(C3)C1)C2`, for which the TGI in the test on BT-549 breast is 39.4 µM; in the test on CAKI-1 renal, 49.5 µM; in the test with HT29 colon, 21.4 µM; with IGROV1 ovarian, 33.1 µM; with K-562 leukemia, over 37.9 µM; in the test on KM12 colon, over 51.6 µM. The TGI with M14 melanoma is 26.6 µM; with MALME-3M melanoma, 47.4 µM; in the test with MDA-MB-435, 37.8 µM; in the test on NCI-H226 lung, 31.6 µM; in the test with NCI-H23 lung it was 54.7 µM; with NCI/ADR-RES ovarian, 14.8 µM. The TGI in the test with OVCAR-3 ovarian turned out to be 10.6 µM; in the test with PC-3 prostate, 19.2 µM; with SF-295 CNS, 26.6 µM; in the test on SK-MEL-5 melanoma it was 15.5 µM; in the test on SN12C renal, 28.7 µM; in the test with T-47D breast it was 41.4 µM.
For `O=C(c1cc(Cl)cc(Cl)c1)N(Cc1cccnc1)C(=S)N(Cc1cccnc1)C(=O)c1cc(Cl)cc(Cl)c1`, the TGI with BT-549 breast is 81.5 µM; with CAKI-1 renal, over 100 µM; with HT29 colon, over 100 µM; in the test with K-562 leukemia, over 100 µM; in the test with KM12 colon, over 100 µM; with M14 melanoma, 72 µM. Moreover, the TGI with MALME-3M melanoma was over 100 µM; in the test with MDA-MB-435 it was over 100 µM; with NCI-H226 lung, over 100 µM; in the test on NCI-H23 lung it was over 100 µM; in the test with NCI/ADR-RES ovarian it was over 100 µM; with OVCAR-3 ovarian it was 61.6 µM. Besides, the TGI with PC-3 prostate was 60.6 µM; in the test with SF-295 CNS, over 100 µM; in the test on SK-MEL-5 melanoma, 76 µM; in the test on SN12C renal, over 100 µM; in the test with T-47D breast, over 100 µM.
Consider `CC(=O)c1cc(CC2Cc3cc4c(cc3C2=O)CCC4)cc2c1CCC2` (stereo not given), for which the TGI with BT-549 breast, in the test with CAKI-1 renal, with HT29 colon, with IGROV1 ovarian, in the test with K-562 leukemia and in the test with KM12 colon was over 100 µM throughout. The TGI with M14 melanoma, in the test on MALME-3M melanoma, with MDA-MB-435, in the test on NCI-H226 lung, in the test on NCI-H23 lung and with NCI/ADR-RES ovarian was over 100 µM in each case. Moreover, the TGI in the test with OVCAR-3 ovarian is over 100 µM; in the test with PC-3 prostate, over 100 µM; in the test on SF-295 CNS, over 100 µM; with SK-MEL-5 melanoma it was 61.2 µM; with SN12C renal, over 100 µM; in the test on T-47D breast it was over 100 µM.
As to `COc1ccc(N=C(CS(=O)c2ccc(C)cc2)C(F)(F)F)cc1` (stereo not given), the TGI with BT-549 breast, in the test on CAKI-1 renal, in the test with HT29 colon, with IGROV1 ovarian, with K-562 leukemia and in the test on KM12 colon was over 100 µM in each case. Also, the TGI with M14 melanoma, with MALME-3M melanoma, in the test with MDA-MB-435, in the test with NCI-H226 lung, in the test on NCI-H23 lung and with NCI/ADR-RES ovarian was over 100 µM in each case. The TGI in the test on OVCAR-3 ovarian, in the test on PC-3 prostate, in the test on SF-295 CNS, in the test on SK-MEL-5 melanoma, in the test on SN12C renal and in the test with T-47D breast was over 100 µM throughout.
Take `COc1ccc(Cc2cc(OC)c(OC)c(OC)c2)cc1`: the TGI in the test with BT-549 breast is 75.6 µM; in the test on CAKI-1 renal, over 51.7 µM; in the test with HT29 colon, 8.25 µM; with IGROV1 ovarian, over 100 µM; in the test with K-562 leukemia, 22 µM; in the test with KM12 colon, over 100 µM. Further, the TGI with M14 melanoma is over 100 µM; in the test with MALME-3M melanoma, over 100 µM; in the test with MDA-MB-435 it was over 100 µM; in the test with NCI-H226 lung, 12 µM; in the test on NCI-H23 lung, 15.3 µM; in the test with NCI/ADR-RES ovarian, over 100 µM. Also, the TGI was 0.424 µM in the test on OVCAR-3 ovarian; over 100 µM in the test with PC-3 prostate; over 29.4 µM with SF-295 CNS; 21.2 µM in the test with SK-MEL-5 melanoma; over 89.3 µM in the test on SN12C renal; 89.8 µM in the test on T-47D breast.
For the compound `CC(NC(=O)C1CCCN1C(=O)CNC(=O)OC(C)(C)C)C(=O)O` (stereo not drawn) (Boc-Gly-Pro-Ala-OH; configuration not given here), the TGI with BT-549 breast, in the test with CAKI-1 renal, in the test on HT29 colon, in the test on IGROV1 ovarian, in the test with K-562 leukemia and with KM12 colon was over 100 µM each time. The TGI in the test on M14 melanoma, in the test with MALME-3M melanoma, in the test on MDA-MB-435, with NCI-H226 lung, with NCI-H23 lung and in the test on NCI/ADR-RES ovarian was over 100 µM each time. In addition, the TGI in the test on OVCAR-3 ovarian, in the test on PC-3 prostate, in the test on SF-295 CNS, in the test with SK-MEL-5 melanoma, with SN12C renal and in the test on T-47D breast was over 100 µM throughout.
Take `CCCCCCc1cc2cc(C(=O)NCc3ccccc3)c(=N)oc2cc1O`: the TGI in the test with BT-549 breast, with CAKI-1 renal, in the test on HT29 colon, in the test with IGROV1 ovarian, in the test on K-562 leukemia and in the test with KM12 colon was over 100 µM each time. Also, the TGI in the test on M14 melanoma, in the test with MALME-3M melanoma, with MDA-MB-435, with NCI-H226 lung, in the test on NCI-H23 lung and in the test with NCI/ADR-RES ovarian was over 100 µM throughout. Moreover, the TGI in the test with OVCAR-3 ovarian, in the test on PC-3 prostate, with SK-MEL-5 melanoma, in the test with SN12C renal and in the test on T-47D breast was over 100 µM throughout.
Regarding `O=c1sc(Nc2ccc3ccccc3c2Cl)nc2ccccc12`, the TGI in the test on BT-549 breast, in the test on CAKI-1 renal, in the test with HT29 colon, in the test with IGROV1 ovarian, in the test on K-562 leukemia and in the test with KM12 colon was over 100 µM throughout. In addition, the TGI with MALME-3M melanoma, in the test on MDA-MB-435, with NCI-H23 lung, with NCI/ADR-RES ovarian, in the test with OVCAR-3 ovarian and with PC-3 prostate was over 100 µM in each case. In addition, the TGI in the test with SF-295 CNS, with SK-MEL-5 melanoma, in the test on SN12C renal and with T-47D breast was over 100 µM throughout.
On to `O=C(/C=C\c1ccsc1)c1ccccc1`, for which the TGI in the test with BT-549 breast was 26.2 µM; in the test on CAKI-1 renal, 8.12 µM; in the test with HT29 colon it was 15.5 µM; in the test on IGROV1 ovarian, 22.2 µM; in the test with K-562 leukemia, over 70.6 µM; in the test with KM12 colon, 8.5 µM. Also, the TGI stood at 21.8 µM in the test with M14 melanoma; 23.1 µM with MDA-MB-435; 34.1 µM in the test on NCI-H226 lung; 15.6 µM in the test on NCI-H23 lung; 32.4 µM in the test on NCI/ADR-RES ovarian; 27.9 µM in the test with OVCAR-3 ovarian. Besides, the TGI in the test with PC-3 prostate was 24.1 µM; in the test on SF-295 CNS it was 29.3 µM; in the test with SK-MEL-5 melanoma it was 27.3 µM; with SN12C renal, 24.6 µM; with T-47D breast, 19.7 µM.
Regarding `O=C1NC(=S)N/C1=C\c1ccc(Cl)cc1`, the TGI with BT-549 breast, in the test on CAKI-1 renal, in the test on HT29 colon, with IGROV1 ovarian, with KM12 colon and with M14 melanoma was over 100 µM each time. In addition, the TGI with MALME-3M melanoma, with MDA-MB-435, in the test with NCI-H226 lung, in the test on NCI-H23 lung, in the test on NCI/ADR-RES ovarian and in the test with OVCAR-3 ovarian was over 100 µM each time. Besides, the TGI in the test on PC-3 prostate, in the test with SF-295 CNS, in the test on SK-MEL-5 melanoma, in the test on SN12C renal and with T-47D breast was over 100 µM throughout.
Regarding `COC(=O)CN=C1NC(=S)N(Cc2ccc(OC)cc2)C12CCCC2`, the TGI in the test with BT-549 breast, with CAKI-1 renal, in the test with HT29 colon, with K-562 leukemia, in the test with KM12 colon and with M14 melanoma was over 100 µM each time. Also, the TGI in the test on MALME-3M melanoma, with MDA-MB-435, in the test with NCI-H226 lung, in the test on NCI-H23 lung, in the test with NCI/ADR-RES ovarian and with OVCAR-3 ovarian was over 100 µM throughout. Moreover, the TGI in the test on PC-3 prostate, in the test with SF-295 CNS, in the test with SN12C renal and in the test on T-47D breast was over 100 µM in each case.
Turning to `Cc1ccc(NC(=O)CC(=O)N2N=C(N3CCCCC3)CC2c2ccccc2)cc1` (stereo not given), the TGI in the test with BT-549 breast, in the test on CAKI-1 renal, with HT29 colon, with IGROV1 ovarian, with KM12 colon and in the test on M14 melanoma was over 100 µM in each case. Moreover, the TGI with MALME-3M melanoma, in the test with MDA-MB-435, with NCI-H226 lung, with NCI-H23 lung, in the test with NCI/ADR-RES ovarian and with OVCAR-3 ovarian was over 100 µM each time. Moreover, the TGI with PC-3 prostate, in the test with SF-295 CNS, in the test on SK-MEL-5 melanoma, with SN12C renal and in the test on T-47D breast was over 100 µM in each case.
As to `COc1ccc(C(OC(=O)[C@H](O[Si](C)(C)C(C)(C)C)[C@@H](NC(=O)c2ccccc2)c2ccccc2)c2ccc(OC)cc2)cc1`, the TGI in the test with BT-549 breast, in the test with CAKI-1 renal, in the test on HT29 colon, in the test with IGROV1 ovarian, with K-562 leukemia and with KM12 colon was over 100 µM in each case. Moreover, the TGI in the test with MALME-3M melanoma, in the test on MDA-MB-435, with NCI-H226 lung, with NCI-H23 lung, in the test with NCI/ADR-RES ovarian and with OVCAR-3 ovarian was over 100 µM throughout. The TGI in the test on PC-3 prostate, with SF-295 CNS, with SK-MEL-5 melanoma, in the test with SN12C renal and with T-47D breast was over 100 µM throughout.
Regarding `O=S(=O)(O)c1ccc(Nc2ccnc3ccccc23)cc1`, the TGI in the test on BT-549 breast, in the test with CAKI-1 renal, in the test on HT29 colon, with IGROV1 ovarian, in the test on K-562 leukemia and with KM12 colon was over 100 µM throughout. Further, the TGI in the test with M14 melanoma, with MALME-3M melanoma, in the test on MDA-MB-435, with NCI-H226 lung, with NCI-H23 lung and in the test on NCI/ADR-RES ovarian was over 100 µM in each case. The TGI in the test with PC-3 prostate, in the test on SF-295 CNS, in the test with SK-MEL-5 melanoma, in the test with SN12C renal and in the test with T-47D breast was over 100 µM each time.
Regarding `O=C1CNc2cc(N3CCOCC3)ccc2N1`, the TGI in the test on BT-549 breast, in the test on CAKI-1 renal, in the test with HT29 colon, in the test on IGROV1 ovarian, in the test with K-562 leukemia and with KM12 colon was over 100 µM in each case. Besides, the TGI in the test on M14 melanoma, in the test with MALME-3M melanoma, with MDA-MB-435, with NCI-H226 lung, in the test on NCI-H23 lung and with NCI/ADR-RES ovarian was over 100 µM in each case. Further, the TGI with OVCAR-3 ovarian, with PC-3 prostate, in the test on SF-295 CNS, in the test with SK-MEL-5 melanoma and in the test with T-47D breast was over 100 µM each time.
